Laboratory results as given in PMC7615185, “Structural basis for ion selectivity in potassium-selective channelrhodopsins” (Cell, 2023).

Target: T1, HcKCR1 (Hyphochytrium catenoides, UniProt A0ABF7PQA2, A110C)
T1 construct: M1-S265; 7TM rhodopsin domain; Sf9, HA signal/FLAG and eGFP-His10-Rho1D4 tags cleaved by 3C, MSP1E3D1/SoyPC nanodisc; residues 6-260 modelled; homotrimer; eYFP fusion in HEK293 for patch clamp
T1 sequence (A0ABF7PQA2 1-265 A110C): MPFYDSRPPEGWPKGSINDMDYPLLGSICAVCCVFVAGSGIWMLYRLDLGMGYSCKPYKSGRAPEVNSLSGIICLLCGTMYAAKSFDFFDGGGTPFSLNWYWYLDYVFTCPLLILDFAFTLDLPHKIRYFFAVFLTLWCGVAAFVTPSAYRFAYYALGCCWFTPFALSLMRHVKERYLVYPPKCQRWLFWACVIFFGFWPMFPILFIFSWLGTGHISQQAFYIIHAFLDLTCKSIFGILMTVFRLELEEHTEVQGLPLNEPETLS
Test: cryo-EM structure, retinal isomer by HPLC
Type: binding
Conditions: dark state, nanodisc, pH 7.5; covalent Schiff base to K233

**Q.** CC1=C(/C=C/C(C)=C/C=C/C(C)=C/C=O)C(C)(C)CCC1 [all-trans-retinal] was tested. Which “cryo-EM structure, retinal isomer by HPLC” value did it give?
**A.** accurate modeling of most residues of both HcKCRs
